Calls of active or inactive are those of the source.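 How the source made its calls: active means PP5 phosphatase activity cut by at least half at the top 100 µM dose; inactive means less than half inhibition at 100 µM.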
target: Serine/threonine-protein phosphatase 5 (Homo sapiens) (UniProt P53041); test: inhibitors of PP5c catalytic activity – biochemical, OMFP substrate, fluorescence, round 5, 1 µM low dose, late-stage follow-up (AID 624448); settings: purified PP5c, OMFP dephosphorylation
Sequence (P53041 whole entry, looked up): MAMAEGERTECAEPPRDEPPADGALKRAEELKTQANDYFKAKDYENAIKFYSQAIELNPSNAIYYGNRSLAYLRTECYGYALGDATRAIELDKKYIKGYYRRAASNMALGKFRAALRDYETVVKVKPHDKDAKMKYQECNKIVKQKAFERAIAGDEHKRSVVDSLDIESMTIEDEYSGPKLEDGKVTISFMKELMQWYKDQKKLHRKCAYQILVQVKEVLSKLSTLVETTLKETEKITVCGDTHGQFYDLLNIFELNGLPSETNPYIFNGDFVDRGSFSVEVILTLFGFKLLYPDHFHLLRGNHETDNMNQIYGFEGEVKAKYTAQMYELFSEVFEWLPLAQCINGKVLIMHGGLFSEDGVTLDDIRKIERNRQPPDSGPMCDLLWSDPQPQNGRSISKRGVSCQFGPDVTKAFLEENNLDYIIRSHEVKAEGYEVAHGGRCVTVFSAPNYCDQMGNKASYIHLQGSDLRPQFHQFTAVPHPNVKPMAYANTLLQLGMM

Row | SMILES | IC50
1 | O=C(O)c1cn(Cc2ccccc2)nn1 | > 100 µM (inactive)
2 | O=C(O)c1cn[nH]n1 | > 100 µM (inactive)
3 | Cc1n[nH]nc1C(=O)O | > 100 µM (inactive)
4 | O=C(O)c1nn(Cc2ccccc2)nc1Cl | > 100 µM (inactive)
5 | O=C(O)c1ncn[nH]1 | > 100 µM (inactive)

Other lines, results leading:

Row | IC50 | SMILES
6 | > 100 µM (inactive) | COC(=O)c1n[nH]nc1-c1ccccc1
7 | > 100 µM (inactive) | O=C(O)c1cn[nH]c1-c1ccccc1
8 | > 100 µM (inactive) | O=C(O)c1nnn(-c2ccccc2)c1-c1ccccc1
